# Measurements: patent US20100075899A1, “TARGETED PHOTODYNAMIC THERAPY AGENT” (TRUSTEES OF THE UNIVERSITY OF PENNSYLVANIA, priority 2006, published 2010)
# Columns and labels:
# [1] = system: KB cells (FR+); test: Flow cytometry uptake (Pyro fluorescence), KB cells; type: cell-based, human
# Experimental: (§1) Flow cytometry experiments. KB, HT 1080, and CHO cells were seeded in T25 flasks (each flask 10^6 cells) and grown for 1 day in complete MEM (KB cells and HT 1080 cells) or complete F12K (CHO cells) medium. […] The cells were detached by 0.25% Trypsin-EDTA, fixed by 1% formaldehyde (methanol free) in PBS, resuspended in 1 mL of PBS and immediately analyzed on a BD LSRII machine at the Flow Cytometry Laboratory, Abramson Cancer Center at the University of Pennsylvania focusing on Pyro fluorescence (exc. 633 nm, em. 695 nm).
# [2] = system: HT 1080 cells (FR−); test: Flow cytometry uptake (Pyro fluorescence), HT 1080 cells; type: cell-based, human
# Experimental: as §1
# [3] = system: CHO cells (FR−); test: Flow cytometry uptake (Pyro fluorescence), CHO cells; type: cell-based, Chinese hamster
# Experimental: as §1
# [4] = type: physicochemical
# Experimental: Pyro-[…] (PP) Pyro-[…]-Folate (PPF) were purified by HPLC (Waters 600 Controller with a 2996 Photodiode Array Detector). The eluents were A=0.1M TEAA (pH 7) and B=acetonitrile and the method used for all injections was 90% of A and 10% of B to 100% of B in 45 minutes with flow 1.5 mL/min on a Zorbax 300SB-C3 column The coupling reagents HBTU (O-(Benzotriazol-1-yl)-N,N,N′,N′-tetramethyluronium hexafluorophosphate) and HOBt (1-Hydroxybenzotriazole) were purchased from Fluka and ACROS respectively. MALDI-ToF was measured on an Applied Biosystems Voyager DE Mass Spectrometer and fluorescence was measured on a Perkin Elmer LS50B Luminescence Spectrometer. We acquired confocal images using a Leica TCS SP2 Confocal Microscope and Xenogen images at the Bioluminescence Molecular Imaging Core facility at UPenn on an IVIS Xenogen Imager. KB cells (human epidermal cancer cells; folate receptor positive), HT 1080 cells (human fibrosarcoma cells; folate receptor negative), and CHO (Chinese hamster ovary cells; folate receptor negative) were purchased from ATCC. […]
substance,measurement,setting,value
Pyro-K-Folate [PKF],uptake efficiency into KB cells relative to Pyro-GDEVDGSGK-Folate,[1],50%
same,uptake efficiency PPF versus PKF in HT 1080 cells,[2],with the same efficiency
same,uptake efficiency PPF versus PKF in CHO cells,[3],with the same efficiency
same,solubility in water compared with PPF,[4],less soluble in water
same,hydrophobicity (HPLC) compared with PPF,[4]; HPLC,more hydrophobic
